Data set [1] has as its system naïve CD4+ T cells (Treg differentiation, FoxP3). As to the kind of experiment: In vitro Treg differentiation, FoxP3 staining by flow cytometry. Type of data set: cell-based, mouse. An excerpt:
To determine if bile acids influence T cell functions, the present inventors performed a small-scale screening assay with a small molecule library comprising secondary bile acids with in vitro Treg differentiation as a read-out. Naïve CD4^+ T lymphocytes were sorted from wild-type B6 mice and cultured in the presence of a TCR stimulus, interleukin 2 (IL-2), and different amounts of TGFβ (optimized for Treg differentiation). Treg differentiation was quantified at the single cell level by staining with an antibody specific for FoxP3, followed by flow cytometry analysis. Retinoic acid, a known enhancer of Treg differentiation, was used as a positive control.
(§1) Our screen included both primary bile acids, synthesized by the host, and secondary bile acids, produced by bacterial modification of primary bile acids (FIG. 5). Naïve CD4^+ T cells were isolated from wild-type C57BL/6J (B6) mice and cultured with bile acids under Th17 differentiation conditions and, as a counter-screen, Treg differentiation conditions (FIG. 6).
(§2) In Vitro T Cell Culture. Naïve CD4^+ (CD62L^+ CD44^− CD25^− CD4^+) T cells were isolated from the spleens and the lymph nodes of mice of designated genotypes with FACS sorting. For certain experiments, naïve CD4^+ T cells were enriched using naïve CD4^+ T cell isolation kits (Miltenyi). Naïve CD4^+ T cells (40,000 cells) were cultured in a 96-well plate pre-coated with hamster IgG (MP Biomedicals) in T cell medium (RPMI, 10% fetal bovine serum, 25 mM glutamine, 55 μM 2-mercaptoethanol, 100 U/mL penicillin, […] streptomycin) supplemented with 0.25 μg/mL anti-CD3 (clone 145-2C11) and 1 μg/mL anti-CD28 (clone 37.51). For Th0 culture, T cells were cultured with the addition of 100 U/mL of IL-2 (PEPROTECH). For Th1 cell differentiation, T cells were cultured with the addition of 100 U/mL of IL-2, 10 μg/mL of anti-IL-4 (clone 11B11) and 10 ng/mL of IL-12 (PEPROTECH). For Th2 cell differentiation, T cells were cultured with the addition of 10 μg/mL of anti-IFNγ (clone XMG1.2) and 10 ng/mL of IL-4 (R&D Systems). For Th17 cell differentiation, T cells were cultured with the addition of 10 ng/mL of IL-6 (eBioscience) and 0.5 ng/mL of TGF-β (PEPROTECH). For Treg culture, T cells were cultured with the addition of 100 U/mL of IL-2 and various concentrations of TGF-β. […] Bile acids, retinoic acid (Sigma) or mitoQ (Focus Biomolecules), or mitoPQ (Sigma) were added either at 0 or 16 h time points. Compounds with low water solubility were sonicated before adding to the culture. Cells were harvested and assayed by flow cytometry on day 3. For ROS and mitochondrial membrane potential detection, cells cultured for 2 days were incubated with 5 μM of mitoSOX (ThermoFisher), 10 μM of DCFDA (Sigma) or 2 μM of JC-1 (ThermoFisher) for 30 min and assayed with flow cytometry.
(§3) Flow Cytometry. Cells harvested from in vitro culture or in vivo mice experiments were stimulated with 50 ng/mL PMA (Phorbol 12-myristate 13-acetate, Sigma) and 1 μM ionomycin (Sigma) in the presence of GolgiPlug (BD) for 4 h to determine cytokine expression. After stimulation, cells were stained with cell surface marker antibodies and LIVE/DEAD Fixable dye, Aqua, to exclude dead cells, fixed and permeabilized with a FoxP3/Transcription factor staining kit (eBioscience), followed by staining with cytokine- and/or transcription factor-specific antibodies. All flow cytometry analyses were performed on an LSR II flow cytometer (BD) and data were analyzed with FlowJo software (TreeStar).

Data set [2] relates to naïve CD4+ T cells (Th17 differentiation, IL-17a). The data set is described as follows: In vitro Th17 differentiation, IL-17a staining by flow cytometry. Type of data set: cell-based, mouse.
Description: as §1, §2, §3

The test system of data set [3] is naïve CD4+ T cells. The data set is described as follows: Cell proliferation assay (CFSE). The following applies: 3 days, vs DMSO. Type of data set: cell-based, mouse. The procedure: Data are representative of two independent experiments (b, d).
Cell Proliferation Assay. Naïve CD4^+ T cells were labeled with 1 μM carboxyfluorescein succinimidyl ester (CFSE, BioLegend) and cultured for 3 days prior to FACS analysis.

The subject of data set [4] is CD4+ T cells. The data set is described as follows: TCR activation markers (CD25, CD69, Nur77, CD44). Type of data set: cell-based, mouse. An excerpt:
Representative FACS plots of CD4^+ T cells cultured for 3 days and stained intracellularly for FoxP3 (e). Quantification of FoxP3^+ and viable T cells after 3-day culture (f) (n=2/group). n, number of biologically independent samples. Data are representative of two independent experiments (b, d). Data in (c) are shown as the mean±standard deviation.

The nature of data set [5]: Bile acid quantification in mouse cecal contents by UPLC-MS. The following applies: mice fed 0.3% (w/w) 3-oxoLCA chow for one week. From the text:
(§4) Data are shown as the mean±standard deviation by unpaired t-test with 2-tailed p-value.

Data set [6] concerns ileal lamina propria Th17 and Treg cells. The data set is described as follows: SFB-dependent Th17 cells in mice fed bile acid diet. The following applies: 0.3% diet. Type of data set: in vivo, mouse. The protocol:
as §4
Cells were then analyzed by flow cytometry.

Entries after “also recorded” stand apart in the source; their conditions may differ.

As to `C[C@H](CCC(=O)O)[C@H]1CC[C@H]2[C@@H]3CC[C@@H]4CC(=O)CC[C@]4(C)[C@H]3CC[C@]12C` [3-oxoLCA, 3-oxolithocholic acid], in data set [1] (3-oxoLCA 20 μM + isoalloLCA 20 μM), the “effect on Treg differentiation induced by isoalloLCA” value is listed as “further enhanced Treg differentiation induced by isoalloLCA in vitro”. Further, in data set [1] (bile acids 20 μM, 3 days, anti-CD3/28, IL-2), the “Treg differentiation (FoxP3 expression)” value was “did not affect Tregs”. The “suppression of Th17 cells in VDR or FXR knockout cells” value in data set [2] (20 μM) is “VDR and FXR also failed to contribute to the suppressive activities”. The “Th17 cell differentiation (IL-17a)” value in data set [2] (bile acids 20 μM, 3 days, IL-6 and TGF-β) was “dose-dependent effects; also recorded: inhibited Th17 differentiation”. Besides, the cell proliferation result in data set [3] was “do not significantly affect cell proliferation; also recorded: did not affect cell proliferation”. The “T cell receptor (TCR)-mediated activation” value in data set [4] is reported as “do not significantly affect cell proliferation, cell viability, or T cell activation”. Besides, in data set [5], the “average concentration in cecal contents” value is 24 picomol/mg of wet mass. In addition, the “percentage of ileal Th17 cells” value in data set [6] (Jax-B6 mice gavaged with SFB, one week) was “significantly reduced the percentage of ileal Th17 cells”. The Th17 cell percentages result in data set [6] (Tac-B6 mice with pre-existing SFB, 7 days) is recorded as “reduced levels of Th17 cell percentages”. For the same compound, the Treg percentages result in data set [6] (Tac-B6 mice, 7 days) is “did not affect Treg percentages”.

For the origin of these results see patent US12103946B2, “Steroid compounds as Treg modulators and uses thereof” (New York University, priority 2018, dated 2024).
